Results from ChEMBL document CHEMBL2074409, “P-glycoprotein plays a role in the oral absorption of BMS-387032, a potent cyclin-dependent kinase 2 inhibitor, in rats” (Cancer Chemother Pharmacol, 2004).

Target: ATP-dependent translocase ABCB1 (Homo sapiens, UniProt P08183)
Test: TP_TRANSPORTER: transepithelial transport of BMS387032 at a concentration of 200uM in Caco-2 cells
Format: functional, cell-based
Details: caco-2, 200 µM

Sequence of ATP-dependent translocase ABCB1 (P08183 whole entry): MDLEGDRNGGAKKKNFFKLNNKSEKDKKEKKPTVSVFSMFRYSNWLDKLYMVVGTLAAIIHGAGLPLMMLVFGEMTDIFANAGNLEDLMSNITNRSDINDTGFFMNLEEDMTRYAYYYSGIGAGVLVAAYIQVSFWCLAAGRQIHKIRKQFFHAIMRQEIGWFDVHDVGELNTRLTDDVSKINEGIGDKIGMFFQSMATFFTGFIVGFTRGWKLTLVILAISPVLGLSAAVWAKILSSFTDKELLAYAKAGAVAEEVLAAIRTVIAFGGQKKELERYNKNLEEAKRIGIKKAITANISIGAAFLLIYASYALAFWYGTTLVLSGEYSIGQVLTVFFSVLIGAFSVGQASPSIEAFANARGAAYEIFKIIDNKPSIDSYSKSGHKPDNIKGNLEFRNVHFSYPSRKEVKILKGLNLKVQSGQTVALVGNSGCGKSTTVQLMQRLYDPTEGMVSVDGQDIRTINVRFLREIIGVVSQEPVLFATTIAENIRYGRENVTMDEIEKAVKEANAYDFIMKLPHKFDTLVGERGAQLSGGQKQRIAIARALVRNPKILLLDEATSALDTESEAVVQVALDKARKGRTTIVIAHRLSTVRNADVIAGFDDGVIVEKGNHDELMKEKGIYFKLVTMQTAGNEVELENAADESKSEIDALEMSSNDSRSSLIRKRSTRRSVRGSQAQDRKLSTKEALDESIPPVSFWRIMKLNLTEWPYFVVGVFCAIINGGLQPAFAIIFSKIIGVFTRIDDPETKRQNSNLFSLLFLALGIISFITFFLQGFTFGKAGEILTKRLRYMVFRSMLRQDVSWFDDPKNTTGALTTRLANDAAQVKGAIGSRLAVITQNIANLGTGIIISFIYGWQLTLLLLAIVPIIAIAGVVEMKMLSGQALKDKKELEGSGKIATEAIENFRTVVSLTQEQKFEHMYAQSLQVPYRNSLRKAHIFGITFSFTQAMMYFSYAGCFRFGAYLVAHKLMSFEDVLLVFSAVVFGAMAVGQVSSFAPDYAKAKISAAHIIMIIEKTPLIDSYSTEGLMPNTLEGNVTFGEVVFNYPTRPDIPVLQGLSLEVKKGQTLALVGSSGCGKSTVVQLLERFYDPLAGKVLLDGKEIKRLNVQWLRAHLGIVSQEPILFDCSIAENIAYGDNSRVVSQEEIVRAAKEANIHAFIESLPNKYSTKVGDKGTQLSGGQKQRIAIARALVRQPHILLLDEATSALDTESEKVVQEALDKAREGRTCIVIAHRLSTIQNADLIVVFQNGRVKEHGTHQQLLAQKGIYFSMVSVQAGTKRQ

In the case of `CC(C)(C)c1cnc(CSc2cnc(NC(=O)C3CCNCC3)s2)o1` [BMS-387032], the Activity is reported as “substrate [+]”.
